EC50 and IC50 data for 16 compounds are collected here from patent US20250320213A1, “Nitrogen-Containing Heterocyclic Compounds” (Pfizer Inc., priority 2024, published 2025).

One may read the EC50 as the concentration needed to bring the measured effect to its halfway point. Broadly, the IC50 is the point on the concentration scale where inhibition reaches its midpoint. Read a low IC50 as greater potency in that assay.

The structures appear in SMILES notation. Counter-ions that a name gives are not always drawn. Like-named read-outs stand apart in the source and are kept apart here.

For experiment [1], the target named is T1, STAT6 (Homo sapiens, UniProt P42226).
T1 construct: stably transfected HaCaT keratinocyte cell line, which expresses NanoLuc luciferase reporter gene under the transcriptional control of the STAT6 responsive promoter; endogenous in cells; host or cells: HaCaT keratinocyte reporter cell line (stably transfected with a NanoLuc reporter)
T1 sequence (P42226 1-847): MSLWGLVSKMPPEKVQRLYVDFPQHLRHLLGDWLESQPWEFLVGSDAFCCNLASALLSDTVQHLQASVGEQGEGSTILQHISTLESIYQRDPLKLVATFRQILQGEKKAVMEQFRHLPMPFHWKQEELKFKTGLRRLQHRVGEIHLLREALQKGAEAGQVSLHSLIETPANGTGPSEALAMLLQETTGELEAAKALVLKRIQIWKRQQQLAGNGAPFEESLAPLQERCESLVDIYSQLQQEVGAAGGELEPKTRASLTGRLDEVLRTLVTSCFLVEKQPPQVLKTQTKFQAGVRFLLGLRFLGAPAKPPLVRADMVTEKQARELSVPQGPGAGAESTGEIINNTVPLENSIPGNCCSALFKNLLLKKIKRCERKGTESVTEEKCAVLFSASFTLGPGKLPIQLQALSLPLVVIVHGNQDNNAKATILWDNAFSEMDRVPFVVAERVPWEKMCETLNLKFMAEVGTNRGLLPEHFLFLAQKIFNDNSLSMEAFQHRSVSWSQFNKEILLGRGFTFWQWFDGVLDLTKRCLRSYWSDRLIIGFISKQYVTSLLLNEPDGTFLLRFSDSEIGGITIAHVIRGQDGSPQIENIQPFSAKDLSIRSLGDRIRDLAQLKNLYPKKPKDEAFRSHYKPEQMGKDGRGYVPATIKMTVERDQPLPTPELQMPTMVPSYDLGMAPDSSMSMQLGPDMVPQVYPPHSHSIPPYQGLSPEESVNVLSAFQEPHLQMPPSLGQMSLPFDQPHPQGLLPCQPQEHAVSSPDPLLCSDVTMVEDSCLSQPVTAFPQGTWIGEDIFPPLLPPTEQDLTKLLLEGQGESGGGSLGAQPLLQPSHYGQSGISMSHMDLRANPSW
The experiment is described as follows: STAT6 Reporter Luciferase Assay (IL-13 stimulated HaCaT keratinocyte NanoLuc reporter cells). The class given is cell-based. The procedure, abridged: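 Stably transfected HaCaT cells carrying NanoLuc under the STAT6-responsive IL-13Ra2 promoter were pre-treated with compound (11-point, 4-fold series, duplicate) for 2 h at 37 °C, then stimulated with 0.12 nM IL-13 for 4 h. Nano-Glo luminescence was read after 15 min.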

Experiment [2] deals with CCL17 secretion in peripheral human whole blood. The experiment is described as follows: Human Whole Blood (HWB) CCL17 TR-FRET Assay (IL-13 stimulated CCL17 secretion). The experiment is classed as cell-based. The settings on record: human whole blood, IL-13 stimulated. Put shortly:
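IC50 comes from serum CCL17 measured by a TR-FRET sandwich assay (16 h at room temperature, 665/615 nm ratio). Beforehand, blood in sodium heparin was exposed to an 11-point, 3-fold compound series for 2 h at 37°C and then to 10 ng/mL IL-13 for 48 h.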

Setting [3] is: IL-13 stimulated HaCaT STAT6 NanoLuc reporter cells, read-out: Reporter EC50.

On to `CC(C)n1nc(C(=O)NCc2ccc(NC(=O)N3CCN(C)CC3)cc2)c2c1[C@@H](C)CN(c1ccc(C(=O)N(C)C)cn1)C2` [Example 470, (S)-5-(5-(dimethylcarbamoyl)pyridin-2-yl)-1-isopropyl-7-methyl-N-(4-(4-methylpiperazine-1-carboxamido)benzyl)-4,5,6,7-tetrahydro-1H-pyrazolo[4,3-c]pyridine-3-carboxamide], for which the EC50 in experiment [1] (setting [3]) came to 1 nM. Moreover, in experiment [2] (Homo sapiens, 48 h), the IC50 is 5 nM.
For the compound `Cc1nn(C)c(=O)n1-c1ccc(CNC(=O)c2nn(C(C)C)c3c2CN(c2ccc(C(=O)N(C)C)cn2)C[C@@H]3C)cc1` [Example 471, (S)-N-(4-(1,3-dimethyl-5-oxo-1,5-dihydro-4H-1,2,4-triazol-4-yl)benzyl)-5-(5-(dimethylcarbamoyl)pyridin-2-yl)-1-isopropyl-7-methyl-4,5,6,7-tetrahydro-1H-pyrazolo[4,3-c]pyridine-3-carboxamide], in experiment [1] (setting [3]), the EC50 is 432 nM. For the same compound, inhibition in experiment [2] (Homo sapiens, 48 h) was half-maximal at 3290 nM (IC50).
Take `CC(C)n1nc(C(=O)NCc2ccc(NC(=O)N(C)C)cc2)c2c1C(O)CN(c1ccc(C(=O)N(C)C)cn1)C2` (centres unmarked) [Example 473, 5-(5-(dimethylcarbamoyl)pyridin-2-yl)-N-(4-(3,3-dimethylureido)benzyl)-7-hydroxy-1-isopropyl-4,5,6,7-tetrahydro-1H-pyrazolo[4,3-c]pyridine-3-carboxamide]: the EC50 in experiment [1] (setting [3]) stood at 0.3 nM. The compound also returned an IC50 in experiment [2] (Homo sapiens, 48 h) of 5 nM.
In the case of `CCn1nc(C(=O)NCc2ccc(NC(=O)NC)cc2)c2c1[C@@H](C)CN(c1ccc(N3CCCC3=O)cn1)C2` [Example 476, (S)-1-ethyl-7-methyl-N-(4-(3-methylureido)benzyl)-5-(5-(2-oxopyrrolidin-1-yl)pyridin-2-yl)-4,5,6,7-tetrahydro-1H-pyrazolo[4,3-c]pyridine-3-carboxamide], the EC50 in experiment [1] (setting [3]) worked out at 1 nM. Also, inhibition in experiment [2] (Homo sapiens, 48 h) was half-maximal at 9 nM (IC50).
On to `CCn1nc(C(=O)NCc2ccc(NC(=O)N(C)C)cc2)c2c1[C@@H](C)CN(c1ccc(C(=O)N3Cc4cccnc4C3)cn1)C2` [Example 477, (S)-5-(5-(6,7-dihydro-5H-pyrrolo[3,4-b]pyridine-6-carbonyl)pyridin-2-yl)-N-(4-(3,3-dimethylureido)benzyl)-1-ethyl-7-methyl-4,5,6,7-tetrahydro-1H-pyrazolo[4,3-c]pyridine-3-carboxamide], for which the EC50 in experiment [1] (setting [3]) turned out to be 0.4 nM. Also, the half-inhibitory concentration (IC50) in experiment [2] (Homo sapiens, 48 h) amounted to 4 nM.
Take `CNC(=O)c1ccc(CNC(=O)c2nn(C(C)C)c3c2CN(c2ccc(N4CCCC4=O)cn2)C[C@@H]3C)cc1` [Example 478, (S)-1-isopropyl-7-methyl-N-(4-(methylcarbamoyl)benzyl)-5-(5-(2-oxopyrrolidin-1-yl)pyridin-2-yl)-4,5,6,7-tetrahydro-1H-pyrazolo[4,3-c]pyridine-3-carboxamide]: the EC50 in experiment [1] (setting [3]) worked out at 2 nM. The compound also had an IC50 in experiment [2] (Homo sapiens, 48 h) of 17 nM.
As for `CC(C)n1nc(C(=O)NCc2ccc(C(N)=O)cc2)c2c1[C@@H](C)CN(c1ccc(N3CCCC3=O)cn1)C2` [Example 479, (S)-N-(4-carbamoylbenzyl)-1-isopropyl-7-methyl-5-(5-(2-oxopyrrolidin-1-yl)pyridin-2-yl)-4,5,6,7-tetrahydro-1H-pyrazolo[4,3-c]pyridine-3-carboxamide], the EC50 in experiment [1] (setting [3]) was determined as 4 nM. In addition, the IC50 in experiment [2] (Homo sapiens, 48 h) was determined as 15 nM.
As to `CNC(=O)Nc1ccc(CNC(=O)c2nn(C(C)C)c3c2CN(c2ccc(N4CCCC4=O)cn2)C[C@@H]3C)cc1` [Example 480, (S)-1-isopropyl-7-methyl-N-(4-(3-methylureido)benzyl)-5-(5-(2-oxopyrrolidin-1-yl)pyridin-2-yl)-4,5,6,7-tetrahydro-1H-pyrazolo[4,3-c]pyridine-3-carboxamide], the EC50 in experiment [1] (setting [3]) was 0.3 nM. The IC50 in experiment [2] (Homo sapiens, 48 h) was 3 nM.
Consider `CNC(=O)Nc1ccc(CNC(=O)c2nn(C(C)C)c3c2CN(c2ncc(N4CCCC4=O)cn2)C[C@@H]3C)cc1` [Example 481, (S)-1-isopropyl-7-methyl-N-(4-(3-methylureido)benzyl)-5-(5-(2-oxopyrrolidin-1-yl)pyrimidin-2-yl)-4,5,6,7-tetrahydro-1H-pyrazolo[4,3-c]pyridine-3-carboxamide], for which the concentration giving a half-maximal response (EC50) in experiment [1] (setting [3]) is 1 nM. The compound also gave a half-inhibitory concentration (IC50) in experiment [2] (Homo sapiens, 48 h) of 14 nM.
Take `CCn1nc(C(=O)NCc2ccc(NC(=O)NC)cc2)c2c1[C@@H](C)CN(c1ncc(N3CCCC3=O)cn1)C2` [Example 482, (S)-1-ethyl-7-methyl-N-(4-(3-methylureido)benzyl)-5-(5-(2-oxopyrrolidin-1-yl)pyrimidin-2-yl)-4,5,6,7-tetrahydro-1H-pyrazolo[4,3-c]pyridine-3-carboxamide]: the EC50 in experiment [1] (setting [3]) is 7 nM. The compound also yielded an IC50 in experiment [2] (Homo sapiens, 48 h) of 25 nM.
Take `CCn1nc(C(=O)NCc2ccc(C(N)=O)cc2)c2c1[C@@H](C)CN(c1ncc(N3CCCC3=O)cn1)C2` [Example 483, (S)-N-(4-carbamoylbenzyl)-1-ethyl-7-methyl-5-(5-(2-oxopyrrolidin-1-yl)pyrimidin-2-yl)-4,5,6,7-tetrahydro-1H-pyrazolo[4,3-c]pyridine-3-carboxamide]: the half-maximal effective concentration (EC50) in experiment [1] (setting [3]) is 33 nM. The compound further yielded a 50% inhibitory concentration (IC50) in experiment [2] (Homo sapiens, 48 h) of 63 nM.
As to `CCn1nc(C(=O)NCc2ccc(C(=O)NC)cc2)c2c1[C@@H](C)CN(c1ncc(N3CCCC3=O)cn1)C2` [Example 484, (S)-1-ethyl-7-methyl-N-(4-(methylcarbamoyl)benzyl)-5-(5-(2-oxopyrrolidin-1-yl)pyrimidin-2-yl)-4,5,6,7-tetrahydro-1H-pyrazolo[4,3-c]pyridine-3-carboxamide], the EC50 in experiment [1] (setting [3]) worked out at 26 nM. Half-maximal inhibition in experiment [2] (Homo sapiens, 48 h) (IC50) was put at 108 nM.
In experiment [1] (Reporter EC50, IL-13 stimulated HaCaT STAT6 NanoLuc reporter cells), `CC(C)n1nc(C(=O)NCc2ccc(NC(=O)N3CCC(OC4CCNCC4)CC3)cc2)c2c1[C@@H](C)CN(c1ccc(C(=O)N(C)C)cc1)C2` [Example 485, (S)-5-(4-(Dimethylcarbamoyl)phenyl)-1-isopropyl-7-methyl-N-(4-(4-(piperidin-4-yloxy)piperidine-1-carboxamido)benzyl)-4,5,6,7-tetrahydro-1H-pyrazolo[4,3-c]pyridine-3-carboxamide hydrochloride] came in with an EC50 of 1 nM. For the same compound, in experiment [2] (48 hours), the midpoint of inhibition, the IC50, lay at 4 nM.
For the compound `CC(C)n1nc(C(=O)NCc2ccc(NC(=O)N(C)C)cc2)c2c1[C@@H](C)CN(c1ncc(N3CCCC3=O)cn1)C2` [Example 486, (S)-N-(4-(3,3-dimethylureido)benzyl)-1-isopropyl-7-methyl-5-(5-(2-oxopyrrolidin-1-yl)pyrimidin-2-yl)-4,5,6,7-tetrahydro-1H-pyrazolo[4,3-c]pyridine-3-carboxamide], the EC50 in experiment [1] (setting [3]) is 2 nM. For the same compound, the 50% inhibitory concentration (IC50) in experiment [2] (Homo sapiens, 48 h) is 11 nM.
Taken in the same sequence, the figures for `CC(C)n1nc(C(=O)NCc2ccc(-c3ncc[nH]3)cc2)c2c1[C@@H](C)CN(c1ncc(N3CCCC3=O)cn1)C2` [Example 487, (S)-N-(4-(1H-imidazol-2-yl)benzyl)-1-isopropyl-7-methyl-5-(5-(2-oxopyrrolidin-1-yl)pyrimidin-2-yl)-4,5,6,7-tetrahydro-1H-pyrazolo[4,3-c]pyridine-3-carboxamide] were 2 nM and 16 nM.
Turning to `CCn1nc(C(=O)NCc2ccc(NC(=O)N(C)C)cc2)c2c1[C@@H](C)CN(c1ncc(N3CCCC3=O)cn1)C2` [Example 488, (S)-N-(4-(3,3-dimethylureido)benzyl)-1-ethyl-7-methyl-5-(5-(2-oxopyrrolidin-1-yl)pyrimidin-2-yl)-4,5,6,7-tetrahydro-1H-pyrazolo[4,3-c]pyridine-3-carboxamide], the concentration giving a half-maximal response (EC50) in experiment [1] (setting [3]) is 3 nM. Also, 27 nM corresponded to half-maximal inhibition in experiment [2] (Homo sapiens, 48 h) (IC50).
